Test results reported in paper PMC3204160 (Journal of natural products, 2011).
pIC50: −log10 of the molar value. Where two headings read alike, the source gives them in different places.

Columns and labels:
recombinant human HDAC1 = recombinant human HDAC1 (Homo sapiens, UniProt Q13547); experiment: Two-step fluorogenic HDAC inhibition assay, HDAC1; type: biochemical; conditions: for times less active against HDAC1 than against HDAC3/N-CoR2: natural/oxidized prodrug form, range given for HDAC1 and HDAC2 together
recombinant human HDAC2 = recombinant human HDAC2 (Homo sapiens, UniProt Q92769); experiment: Two-step fluorogenic HDAC inhibition assay, HDAC2; type: biochemical; conditions: for times less active against HDAC2 than against HDAC3/N-CoR2: natural/oxidized prodrug form, range given for HDAC1 and HDAC2 together
recombinant human HDAC4 = recombinant human HDAC4 (Homo sapiens, UniProt P56524); experiment: biochemical; type: biochemical
recombinant human HDAC6 = molecular target: T1, recombinant human HDAC6 (Homo sapiens, UniProt Q9UBN7); experiment: biochemical; type: biochemical; conditions: for potency towards HDAC6, times less than to HDAC1–3: reduced form
T1 sequence (Q9UBN7 1-1215): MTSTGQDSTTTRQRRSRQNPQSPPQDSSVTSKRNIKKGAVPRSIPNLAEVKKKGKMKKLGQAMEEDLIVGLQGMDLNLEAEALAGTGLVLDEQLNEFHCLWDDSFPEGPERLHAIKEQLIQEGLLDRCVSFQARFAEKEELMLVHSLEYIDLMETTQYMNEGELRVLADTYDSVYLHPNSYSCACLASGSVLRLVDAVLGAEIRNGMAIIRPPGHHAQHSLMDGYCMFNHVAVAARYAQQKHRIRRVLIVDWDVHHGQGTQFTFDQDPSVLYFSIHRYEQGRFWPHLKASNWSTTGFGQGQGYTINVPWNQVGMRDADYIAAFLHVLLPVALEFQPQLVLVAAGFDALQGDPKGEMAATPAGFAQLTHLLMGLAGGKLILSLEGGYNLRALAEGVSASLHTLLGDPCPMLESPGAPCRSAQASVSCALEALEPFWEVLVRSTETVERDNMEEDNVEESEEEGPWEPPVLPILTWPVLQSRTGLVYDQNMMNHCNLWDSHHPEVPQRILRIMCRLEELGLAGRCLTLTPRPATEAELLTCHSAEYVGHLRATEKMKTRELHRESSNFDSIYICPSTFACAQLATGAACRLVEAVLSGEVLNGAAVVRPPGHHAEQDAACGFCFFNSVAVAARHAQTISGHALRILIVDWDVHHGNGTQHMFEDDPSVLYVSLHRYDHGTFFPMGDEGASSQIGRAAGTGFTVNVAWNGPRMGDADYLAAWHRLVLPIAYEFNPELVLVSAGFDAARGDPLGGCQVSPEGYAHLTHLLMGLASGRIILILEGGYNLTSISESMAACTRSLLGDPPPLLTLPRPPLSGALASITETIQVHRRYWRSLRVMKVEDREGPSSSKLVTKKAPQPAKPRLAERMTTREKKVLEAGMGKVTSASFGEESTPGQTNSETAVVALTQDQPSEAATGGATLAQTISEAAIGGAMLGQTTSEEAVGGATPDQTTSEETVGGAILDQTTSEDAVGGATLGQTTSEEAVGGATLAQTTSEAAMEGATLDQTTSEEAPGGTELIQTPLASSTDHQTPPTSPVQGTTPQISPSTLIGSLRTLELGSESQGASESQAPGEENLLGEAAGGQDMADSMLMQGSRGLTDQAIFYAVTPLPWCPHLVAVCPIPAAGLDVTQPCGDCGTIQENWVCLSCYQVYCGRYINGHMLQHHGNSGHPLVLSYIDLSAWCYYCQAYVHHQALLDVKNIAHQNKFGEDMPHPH

recombinant human HDAC7 = molecular target: T2, recombinant human HDAC7 (Homo sapiens, UniProt Q8WUI4); experiment: biochemical
T2 sequence (Q8WUI4 1-952): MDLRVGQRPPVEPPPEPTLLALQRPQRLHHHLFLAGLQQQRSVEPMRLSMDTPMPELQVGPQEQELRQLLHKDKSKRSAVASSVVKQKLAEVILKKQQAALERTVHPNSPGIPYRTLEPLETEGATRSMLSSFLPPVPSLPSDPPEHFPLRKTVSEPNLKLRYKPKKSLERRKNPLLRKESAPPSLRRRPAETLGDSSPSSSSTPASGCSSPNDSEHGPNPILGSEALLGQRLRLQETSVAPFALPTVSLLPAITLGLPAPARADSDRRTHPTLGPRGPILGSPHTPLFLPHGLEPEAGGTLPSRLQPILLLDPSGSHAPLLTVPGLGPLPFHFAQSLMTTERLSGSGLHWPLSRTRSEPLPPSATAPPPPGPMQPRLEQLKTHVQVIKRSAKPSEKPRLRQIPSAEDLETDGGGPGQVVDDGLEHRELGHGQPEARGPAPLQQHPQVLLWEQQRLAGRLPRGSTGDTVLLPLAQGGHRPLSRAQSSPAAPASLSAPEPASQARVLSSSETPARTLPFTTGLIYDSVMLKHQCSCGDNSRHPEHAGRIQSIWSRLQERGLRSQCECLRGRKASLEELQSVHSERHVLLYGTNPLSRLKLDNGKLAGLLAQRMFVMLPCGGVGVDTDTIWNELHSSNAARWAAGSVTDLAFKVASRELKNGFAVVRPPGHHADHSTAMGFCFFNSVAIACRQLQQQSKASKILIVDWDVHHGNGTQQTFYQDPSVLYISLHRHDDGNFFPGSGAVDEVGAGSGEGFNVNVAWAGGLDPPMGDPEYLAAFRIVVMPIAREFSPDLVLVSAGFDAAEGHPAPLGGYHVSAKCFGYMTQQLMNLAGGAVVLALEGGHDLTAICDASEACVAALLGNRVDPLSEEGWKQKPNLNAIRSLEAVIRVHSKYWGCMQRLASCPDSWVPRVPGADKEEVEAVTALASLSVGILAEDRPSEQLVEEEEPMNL

[1] = molecular target: HDAC3 (in complex with N-CoR2) (Homo sapiens, UniProt O15379); experiment: biochemical
recombinant human HDAC8 = molecular target: T3, recombinant human HDAC8 (Homo sapiens, UniProt Q9BY41); experiment: biochemical; type: biochemical
T3 sequence (Q9BY41 1-377): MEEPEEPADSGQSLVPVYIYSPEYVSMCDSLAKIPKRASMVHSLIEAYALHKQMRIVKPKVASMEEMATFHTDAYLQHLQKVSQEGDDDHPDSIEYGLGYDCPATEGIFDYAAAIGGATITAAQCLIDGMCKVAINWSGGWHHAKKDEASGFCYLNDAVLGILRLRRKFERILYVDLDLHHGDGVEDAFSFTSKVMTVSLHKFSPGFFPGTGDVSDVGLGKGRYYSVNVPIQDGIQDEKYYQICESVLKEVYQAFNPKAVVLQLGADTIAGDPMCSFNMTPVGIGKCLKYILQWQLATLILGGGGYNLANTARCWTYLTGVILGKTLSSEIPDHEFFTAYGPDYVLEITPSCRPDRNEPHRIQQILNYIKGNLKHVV

recombinant human HDAC9 = recombinant human HDAC9 (Homo sapiens, UniProt Q9UKV0); experiment: biochemical
[2] = tested on: NCI-60 human cancer cell lines; experiment: NCI-60 anticancer drug screen and COMPARE analysis; type: cell-based; conditions: for over 90% of the tested NCI-60 cell lines; five concentrations 10^−4 to 10^−8 M

Sequence of recombinant human HDAC1 (Q13547 whole entry): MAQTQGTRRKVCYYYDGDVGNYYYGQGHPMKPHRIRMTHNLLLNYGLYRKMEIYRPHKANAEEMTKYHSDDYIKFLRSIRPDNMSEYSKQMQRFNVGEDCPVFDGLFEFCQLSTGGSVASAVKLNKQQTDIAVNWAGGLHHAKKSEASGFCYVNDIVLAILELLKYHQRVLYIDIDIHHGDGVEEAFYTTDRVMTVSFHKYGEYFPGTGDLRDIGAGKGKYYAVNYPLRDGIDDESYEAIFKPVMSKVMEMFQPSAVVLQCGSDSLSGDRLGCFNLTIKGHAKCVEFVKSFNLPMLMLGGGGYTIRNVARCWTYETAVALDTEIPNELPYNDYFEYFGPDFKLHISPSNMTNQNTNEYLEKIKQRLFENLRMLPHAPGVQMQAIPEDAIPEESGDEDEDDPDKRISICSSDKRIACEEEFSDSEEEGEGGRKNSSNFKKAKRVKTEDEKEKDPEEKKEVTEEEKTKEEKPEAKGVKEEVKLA
Sequence of recombinant human HDAC2 (Q92769 whole entry): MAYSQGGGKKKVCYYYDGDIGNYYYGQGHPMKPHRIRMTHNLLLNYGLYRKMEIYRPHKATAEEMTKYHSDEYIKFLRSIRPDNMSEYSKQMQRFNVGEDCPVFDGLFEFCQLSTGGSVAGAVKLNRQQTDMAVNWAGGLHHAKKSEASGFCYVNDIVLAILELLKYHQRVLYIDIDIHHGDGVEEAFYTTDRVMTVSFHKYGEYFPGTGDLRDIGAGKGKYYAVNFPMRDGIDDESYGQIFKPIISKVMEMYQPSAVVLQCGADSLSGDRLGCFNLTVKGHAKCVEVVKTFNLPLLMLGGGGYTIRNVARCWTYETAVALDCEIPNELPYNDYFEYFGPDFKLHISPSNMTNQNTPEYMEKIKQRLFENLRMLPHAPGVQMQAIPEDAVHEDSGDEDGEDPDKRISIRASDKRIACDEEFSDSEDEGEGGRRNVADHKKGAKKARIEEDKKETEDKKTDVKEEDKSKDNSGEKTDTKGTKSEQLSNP
Sequence of recombinant human HDAC4 (P56524 whole entry): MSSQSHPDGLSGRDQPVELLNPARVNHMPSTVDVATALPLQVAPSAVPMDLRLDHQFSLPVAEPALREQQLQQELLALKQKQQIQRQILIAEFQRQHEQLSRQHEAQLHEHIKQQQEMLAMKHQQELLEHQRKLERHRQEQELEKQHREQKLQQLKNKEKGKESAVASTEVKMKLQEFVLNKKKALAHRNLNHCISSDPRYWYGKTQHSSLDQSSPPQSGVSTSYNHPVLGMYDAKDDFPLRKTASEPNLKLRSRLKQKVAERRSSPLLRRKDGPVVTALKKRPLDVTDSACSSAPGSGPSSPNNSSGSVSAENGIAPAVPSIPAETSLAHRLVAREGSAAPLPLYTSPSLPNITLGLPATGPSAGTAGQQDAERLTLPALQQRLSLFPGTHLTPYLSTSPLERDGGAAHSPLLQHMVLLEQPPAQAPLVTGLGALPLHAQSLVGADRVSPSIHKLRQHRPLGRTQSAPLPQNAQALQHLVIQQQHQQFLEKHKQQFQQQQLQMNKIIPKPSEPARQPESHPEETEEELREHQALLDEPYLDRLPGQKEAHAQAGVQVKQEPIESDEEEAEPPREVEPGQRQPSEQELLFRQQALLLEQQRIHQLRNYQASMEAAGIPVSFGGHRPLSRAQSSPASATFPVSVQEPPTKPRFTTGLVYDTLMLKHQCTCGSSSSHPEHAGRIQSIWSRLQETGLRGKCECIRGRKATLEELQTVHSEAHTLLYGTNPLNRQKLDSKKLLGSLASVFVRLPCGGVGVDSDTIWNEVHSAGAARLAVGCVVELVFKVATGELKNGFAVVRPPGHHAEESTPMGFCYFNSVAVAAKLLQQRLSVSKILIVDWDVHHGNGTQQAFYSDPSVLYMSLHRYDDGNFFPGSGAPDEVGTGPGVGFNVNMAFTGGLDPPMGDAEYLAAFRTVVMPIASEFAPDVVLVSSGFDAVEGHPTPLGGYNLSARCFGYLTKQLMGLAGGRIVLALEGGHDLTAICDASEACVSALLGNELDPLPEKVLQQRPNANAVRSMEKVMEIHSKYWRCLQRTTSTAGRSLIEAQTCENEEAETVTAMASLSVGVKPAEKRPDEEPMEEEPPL
Sequence of HDAC3 (in complex with N-CoR2) (O15379 whole entry): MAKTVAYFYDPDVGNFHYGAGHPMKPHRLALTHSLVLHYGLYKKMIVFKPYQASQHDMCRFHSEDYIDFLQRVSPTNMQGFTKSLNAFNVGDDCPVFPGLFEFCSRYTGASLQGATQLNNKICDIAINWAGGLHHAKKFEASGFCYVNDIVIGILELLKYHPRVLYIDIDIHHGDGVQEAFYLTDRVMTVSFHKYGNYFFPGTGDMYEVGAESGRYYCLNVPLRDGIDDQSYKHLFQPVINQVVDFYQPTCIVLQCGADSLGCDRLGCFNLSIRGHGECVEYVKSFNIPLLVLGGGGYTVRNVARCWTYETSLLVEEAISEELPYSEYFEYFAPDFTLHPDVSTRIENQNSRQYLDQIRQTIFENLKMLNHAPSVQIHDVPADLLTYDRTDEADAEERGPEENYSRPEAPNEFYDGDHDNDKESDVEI
Sequence of HDAC3 (in complex with N-CoR2) (Q9Y618 395-489 partner limits assumed): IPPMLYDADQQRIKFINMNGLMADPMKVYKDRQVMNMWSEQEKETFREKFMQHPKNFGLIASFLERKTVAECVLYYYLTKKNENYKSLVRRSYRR
Sequence of recombinant human HDAC9 (Q9UKV0 whole entry): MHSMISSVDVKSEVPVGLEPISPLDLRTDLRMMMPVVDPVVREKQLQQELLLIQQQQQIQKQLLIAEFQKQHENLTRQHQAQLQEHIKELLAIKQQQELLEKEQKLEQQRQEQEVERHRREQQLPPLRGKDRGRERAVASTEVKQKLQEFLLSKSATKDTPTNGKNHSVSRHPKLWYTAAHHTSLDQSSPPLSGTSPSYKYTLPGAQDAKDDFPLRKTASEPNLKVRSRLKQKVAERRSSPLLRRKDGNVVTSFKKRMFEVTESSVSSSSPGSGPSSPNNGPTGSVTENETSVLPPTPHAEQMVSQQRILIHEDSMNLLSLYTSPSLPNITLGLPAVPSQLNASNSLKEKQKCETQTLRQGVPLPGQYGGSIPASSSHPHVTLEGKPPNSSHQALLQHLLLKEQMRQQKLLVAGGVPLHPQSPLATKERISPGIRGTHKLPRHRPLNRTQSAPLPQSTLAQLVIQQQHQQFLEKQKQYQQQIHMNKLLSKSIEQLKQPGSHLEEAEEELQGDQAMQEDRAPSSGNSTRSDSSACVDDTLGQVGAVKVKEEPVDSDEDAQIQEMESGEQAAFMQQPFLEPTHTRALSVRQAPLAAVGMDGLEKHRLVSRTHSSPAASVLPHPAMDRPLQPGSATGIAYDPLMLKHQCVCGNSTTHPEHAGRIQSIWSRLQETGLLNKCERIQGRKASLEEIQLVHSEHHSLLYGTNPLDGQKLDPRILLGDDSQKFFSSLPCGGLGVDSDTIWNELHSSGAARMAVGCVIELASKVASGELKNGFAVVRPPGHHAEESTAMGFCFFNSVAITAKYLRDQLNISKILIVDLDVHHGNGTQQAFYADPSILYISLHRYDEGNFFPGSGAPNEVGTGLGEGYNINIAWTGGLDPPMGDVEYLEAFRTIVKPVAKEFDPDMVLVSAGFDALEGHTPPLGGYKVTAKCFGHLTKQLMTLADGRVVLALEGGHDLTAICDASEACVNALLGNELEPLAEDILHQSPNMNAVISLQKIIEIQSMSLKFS

| Structure (SMILES) | pIC50 (recombinant human HDAC1) | times less active against HDAC1 than against HDAC3/N-CoR2 (recombinant human HDAC1) | times less active against HDAC2 than against HDAC3/N-CoR2 (recombinant human HDAC2) | pIC50 (recombinant human HDAC4) | potency towards HDAC6, times less than to HDAC1–3 (recombinant human HDAC6) | pIC50 (recombinant human HDAC7) | pIC50 (recombinant human HDAC2) | pIC50 [1] | fold less potent against HDAC4 than 2* (recombinant human HDAC4) | pIC50 (recombinant human HDAC6) | pIC50 (recombinant human HDAC8) | fold less potent against HDAC8 than 2* (recombinant human HDAC8) | inhibition of HDAC8, times weaker than the inhibition of HDAC1–3 (recombinant human HDAC8) | pIC50 (recombinant human HDAC9) | GI50 (growth inhibition) [2] | inhibition of HDAC8, times weaker than the inhibition of HDAC1–3 (recombinant human HDAC8; reduced form) |
| --- | --- | --- | --- | --- | --- | --- | --- | --- | --- | --- | --- | --- | --- | --- | --- | --- |
| C/C=C1\NC(=O)[C@H]2CSSCC/C=C/[C@H](CC(=O)N[C@H](C(C)C)C(=O)N2)OC(=O)[C@H](C(C)C)NC1=O [Compound 2, FK228, reference compound] | 8.28 | 80–450 times | 80–450 times | 6.33 | 30–100 times | 5.49 | – | – | – | – | – | – | – | – | – | – |
| CC[C@H](C)[C@H]1NC(=O)[C@H]2CSSCC/C=C/[C@H](CC(=O)N[C@H](CCSC)C(=O)N2)OC(=O)C[C@@H]1O [Compound 6, thailandepsin A] | 7.85 | 80–450 times | 80–450 times | 4.38 | 30–100 times | 4.96 | 8.46 | 8.32 | 40–90 fold | 6.42 | 5.92 | 40–90 fold | 80–350 times | 4.92 | low nanomolar concentrations | – |
| CCCC[C@H]1NC(=O)C[C@H]2/C=C/CCSSC[C@@H](NC1=O)C(=O)N[C@H]([C@@H](C)CC)[C@@H](O)CC(=O)O2 [Compound 7, thailandepsin B] | – | 80–450 times | 80–450 times | – | 30–100 times | – | – | – | – | – | – | – | – | – | low nanomolar concentrations | 80–350 times |
